# Assay results from patent US12097202B2 (Kadmon Corporation, LLC, priority 2022, dated 2024).
# How the values were obtained:
# [1] = tested on: rats; assay: Combined male and female rat fertility study; format: in vivo; settings: oral
# Source text: In a combined male and female rat fertility study, belumosudil-treated male animals were mated with untreated females, or untreated males were mated with belumosudil-treated females.
# [2] = biological target: T1, UGT1A1 (Homo sapiens, UniProt P22309); assay: In vitro enzyme inhibition, UGT1A1; format: in vitro ADME
# T1 sequence (P22309 26-533): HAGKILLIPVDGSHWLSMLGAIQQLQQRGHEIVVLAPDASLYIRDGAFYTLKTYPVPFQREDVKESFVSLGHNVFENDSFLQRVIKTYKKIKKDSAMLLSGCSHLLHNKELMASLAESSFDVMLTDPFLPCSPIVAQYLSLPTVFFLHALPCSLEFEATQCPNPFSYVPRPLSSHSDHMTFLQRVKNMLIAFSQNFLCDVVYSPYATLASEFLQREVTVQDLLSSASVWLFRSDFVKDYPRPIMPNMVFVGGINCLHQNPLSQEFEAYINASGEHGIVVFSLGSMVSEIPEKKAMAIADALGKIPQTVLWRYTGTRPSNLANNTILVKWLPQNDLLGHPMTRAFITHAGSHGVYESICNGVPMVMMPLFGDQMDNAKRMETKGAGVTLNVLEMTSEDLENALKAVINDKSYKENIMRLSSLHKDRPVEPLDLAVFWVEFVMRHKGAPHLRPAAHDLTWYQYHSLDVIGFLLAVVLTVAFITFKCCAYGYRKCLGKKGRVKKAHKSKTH
# [3] = biological target: human serum albumin (Homo sapiens, UniProt P02768); assay: In vitro protein binding, human serum albumin; format: in vitro ADME
# [4] = Clinical drug interaction studies, effects of other drugs on belumosudil in healthy subjects; format: in vivo, human
# [5] = tested on: patients with chronic GVHD; assay: Pooled adverse reactions and laboratory abnormalities, 83 adult chronic GVHD patients on 200 mg once daily (KD025-213 and KD025-208); format: in vivo, human; settings: for Alanine Aminotransferase Increased / Alkaline Phosphatase Increased / Calcium Decreased / Creatinine Increased / Gamma Glutamyl Transferase Increased / Hemoglobin Decreased / Lymphocytes Decreased / Neutrophil Count Decreased / Phosphate Decreased / Platelets Decreased / Potassium Increased: Grade 0-1 Baseline
# Source text: The median duration of treatment was 9.2 months (range 0.5 to 44.7 months).
# human serum albumin, sequence (P02768 25-609): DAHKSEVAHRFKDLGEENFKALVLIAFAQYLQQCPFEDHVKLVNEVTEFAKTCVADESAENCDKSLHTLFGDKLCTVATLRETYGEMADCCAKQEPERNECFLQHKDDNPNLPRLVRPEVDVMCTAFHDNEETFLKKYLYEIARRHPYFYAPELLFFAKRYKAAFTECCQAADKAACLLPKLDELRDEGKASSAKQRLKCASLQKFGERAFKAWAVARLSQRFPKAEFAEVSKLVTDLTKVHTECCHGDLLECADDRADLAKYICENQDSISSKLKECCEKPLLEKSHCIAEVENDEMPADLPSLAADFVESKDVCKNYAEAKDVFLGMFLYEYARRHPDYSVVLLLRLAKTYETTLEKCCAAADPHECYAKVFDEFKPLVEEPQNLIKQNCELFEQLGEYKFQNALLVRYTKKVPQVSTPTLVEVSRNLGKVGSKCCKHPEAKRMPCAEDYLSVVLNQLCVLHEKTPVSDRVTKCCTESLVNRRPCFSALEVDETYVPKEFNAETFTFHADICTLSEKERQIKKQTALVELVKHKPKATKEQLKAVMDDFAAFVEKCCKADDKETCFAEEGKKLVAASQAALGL
smiles,measurement,setting,value
"CC(C)NC(=O)COc1cccc(-c2nc(Nc3ccc4[nH]ncc4c3)c3ccccc3n2)c1 [belumosudil, 2-{3-[4-(1H-indazol-5-ylamino)-2-quinazolinyl]phenoxy}-N-(propan-2-yl) acetamide]","dose with adverse fertility findings (pre- or post-implantation loss, fewer viable embryos, abnormal sperm, testes/epididymis changes, reduced fertility)",[1],275 mg/kg/day
same,inhibition of UGT1A1,[2],inhibitor
same,binding to human serum albumin,[3],99.9%
same,decrease of belumosudil AUC with omeprazole,[4],47%
same,decrease of belumosudil AUC with rabeprazole,[4],80%
same,decrease of belumosudil AUC with rifampin,[4],72%
same,decrease of belumosudil Cmax with omeprazole,[4],68%
same,decrease of belumosudil Cmax with rabeprazole,[4],87%
same,decrease of belumosudil Cmax with rifampin,[4],59%
same,effect of itraconazole (strong CYP3A inhibitor) on belumosudil exposure,[4],no clinically meaningful effect
same,Alanine Aminotransferase Increased,[5]; Grade 2-4 Max Post,7%
same,Alkaline Phosphatase Increased,[5]; Grade 2-4 Max Post,9%
same,Calcium Decreased,[5]; Grade 2-4 Max Post,12%
same,Creatinine Increased,[5]; Grade 2-4 Max Post,4%
same,Gamma Glutamyl Transferase Increased,[5]; Grade 2-4 Max Post,21%
same,Hemoglobin Decreased,[5]; Grade 2-4 Max Post,11%
same,Lymphocytes Decreased,[5]; Grade 2-4 Max Post,29%
same,Neutrophil Count Decreased,[5]; Grade 2-4 Max Post,8%
same,Phosphate Decreased,[5]; Grade 2-4 Max Post,28%
same,Platelets Decreased,[5]; Grade 2-4 Max Post,10%
same,Potassium Increased,[5]; Grade 2-4 Max Post,7%
same,Alanine Aminotransferase Increased,[5]; Grade 3-4 Max Post,2%
same,Alkaline Phosphatase Increased,[5]; Grade 3-4 Max Post,0%
same,Calcium Decreased,[5]; Grade 3-4 Max Post,1%
same,Creatinine Increased,[5]; Grade 3-4 Max Post,0%
same,Gamma Glutamyl Transferase Increased,[5]; Grade 3-4 Max Post,11%
same,Hemoglobin Decreased,[5]; Grade 3-4 Max Post,1%
same,Lymphocytes Decreased,[5]; Grade 3-4 Max Post,13%
same,Neutrophil Count Decreased,[5]; Grade 3-4 Max Post,4%
same,Phosphate Decreased,[5]; Grade 3-4 Max Post,7%
same,Platelets Decreased,[5]; Grade 3-4 Max Post,5%
same,Potassium Increased,[5]; Grade 3-4 Max Post,1%
same,"Abdominal pain, All Grades",[5]; N=83,22%
same,"Abdominal pain, Grades 3-4",[5]; N=83,1%
same,"Arthralgia, All Grades",[5]; N=83,15%
same,"Arthralgia, Grades 3-4",[5]; N=83,2%
same,"Asthenia, All Grades",[5]; N=83,46%
same,"Asthenia, Grades 3-4",[5]; N=83,4%
same,"Bacterial infection, All Grades",[5]; N=83,16%
same,"Bacterial infection, Grades 3-4",[5]; N=83,4%
same,"Cough, All Grades",[5]; N=83,30%
same,"Cough, Grades 3-4",[5]; N=83,0%
same,"Decreased appetite, All Grades",[5]; N=83,17%
same,"Decreased appetite, Grades 3-4",[5]; N=83,1%
same,"Diarrhea, All Grades",[5]; N=83,35%
same,"Diarrhea, Grades 3-4",[5]; N=83,5%
same,"Dysphagia, All Grades",[5]; N=83,16%
same,"Dysphagia, Grades 3-4",[5]; N=83,0%
same,"Dyspnea, All Grades",[5]; N=83,33%
same,"Dyspnea, Grades 3-4",[5]; N=83,5%
same,"Edema, All Grades",[5]; N=83,27%
same,"Edema, Grades 3-4",[5]; N=83,1%
same,"Headache, All Grades",[5]; N=83,21%
same,"Headache, Grades 3-4",[5]; N=83,0%
same,"Hemorrhage, All Grades",[5]; N=83,23%
same,"Hemorrhage, Grades 3-4",[5]; N=83,5%
same,"Hypertension, All Grades",[5]; N=83,21%
same,"Hypertension, Grades 3-4",[5]; N=83,7%
same,"Infection (pathogen not specified), All Grades",[5]; N=83,53%
same,"Infection (pathogen not specified), Grades 3-4",[5]; N=83,16%
same,"Muscle spasm, All Grades",[5]; N=83,17%
same,"Muscle spasm, Grades 3-4",[5]; N=83,0%
same,"Musculoskeletal pain, All Grades",[5]; N=83,22%
same,"Musculoskeletal pain, Grades 3-4",[5]; N=83,4%
same,"Nausea (includes vomiting), All Grades",[5]; N=83,42%
same,"Nausea (includes vomiting), Grades 3-4",[5]; N=83,4%
same,"Pruritus, All Grades",[5]; N=83,11%
same,"Pruritus, Grades 3-4",[5]; N=83,0%
same,"Pyrexia, All Grades",[5]; N=83,18%
same,"Pyrexia, Grades 3-4",[5]; N=83,1%
same,"Rash, All Grades",[5]; N=83,12%
same,"Rash, Grades 3-4",[5]; N=83,0%
same,"Viral infection, All Grades",[5]; N=83,19%
same,"Viral infection, Grades 3-4",[5]; N=83,4%
same,adverse reactions leading to dose interruption,[5]; N=83,29%
same,"dose interruption due to asthenia, dyspnea, hemorrhage, hypotension, liver function test abnormal, nausea, pyrexia, edema, renal failure (each)",[5]; N=83,2%
same,dose interruption due to diarrhea,[5]; N=83,4%
same,dose interruption due to infections,[5]; N=83,11%
same,permanent discontinuation due to adverse reactions,[5]; N=83,18%
same,permanent discontinuation due to nausea,[5]; N=83,4%
